Broadly, the IC50 is the concentration at which inhibition is half-maximal.

The structures appear in SMILES notation. Read-outs that look alike come from different tables or passages of the source.

For one assay, the target named is T1, Cathepsin S (Homo sapiens, UniProt P25774).
T1 construct: purchased Biovision K149-100
In words: IC50 determination against Cathepsin S (Biovision kit K149-100). As to conditions: CTSS. In kind it is biochemical. The method, then:
(§1) 2. Method for determining IC50 of compounds against cathepsin:
IC50 of compounds against Cathepsin S was determined by using Cathepsin S Inhibitor Screening Kit (Product No. K149-100) from Biovision Company.
2.1.1.4 Preparation of Cathepsin S solution: Cathepsin S enzyme (46 μl) was added to Cathepsin S buffer (2254 μl), and mixed well, to prepare Cathepsin S enzyme solution with a volume of 2.3 ml, which was placed on ice for further use.
(§2) 2.1.2 Preparation of compound solutions: 30 mM and 10 mM compound stock solutions, and control compounds were gradiently diluted in DMSO at a ratio of 1:3, wherein the maximum dilution fold was 19683; the gradiently diluted compound solution (3 μl) was added to Cathepsin K, B, L, and S buffer (27 μl), respectively, and mixed well, wherein the control compounds (FF-FMK, F-F-FMK, FF-FMK and Z-FF-FMK) were at the concentrations of 66.67, 22.22, 7.41, 2.47, 0.82, 0.27, 0.091, 0.03, 0.01, 0.0034 and 0 μM, respectively, the test compounds were at the concentrations of 1000, 333.3, 111.1, 37, 12.3, 4.1, 1.4, 0.46, 0.15, 0.05 and 0 μM, respectively, and the final concentration of DMSO was 10%.
2.1.3.4 Cathepsin S: Cathepsin S substrate (90 μl) was added to Cathepsin S buffer (1710 μl), and mixed well, to prepare Cathepsin S substrate solution with a volume of 1.8 ml, which was placed on ice for further use.
(§3) Method for screening cathepsin inhibitors: the cathepsin solution (prepared in Item 2.1.1) was added to a 384-well plate (ProxiPlate-384 Plus, Perkinelmer) at 10 μl/well, and centrifuged at 1000 rpm for Imin; the compound solution (prepared in Item 2.1.2) was then added at 2 μl/well, and every concentration was repeated in two wells; the final concentrations of the test compounds were 100, 33.3, 11.1, 3.7, 1.23, 0.41, 0.14, 0.046, 0.015, 0.005 and 0 μM, respectively, wherein the final concentration of DMSO was 1%; after centrifugation at 1000 rpm for 1 min, the plate was put in a 25° C. incubator for 15 min; the cathepsin substrate solution was then added at 8 µl/well, and centrifuged at 1000 rpm for 1 min; and finally, the fluorescence signal was read in Enspire, wherein the exciting light was at a wavelength of 400 nm, the emitting light was at a wavelength of 505 nm, and continuous reading was performed at 37° C. for 120 min.
(§4) Data analysis: the slope (S) for all the samples was calculated by ΔRFU(RFU2−RFU1) and time ΔT(T2−T1), including negative control (Enzyme Control, EC) and positive control (Inhibitor Control, IC: 10 μM (FF-FMK, F-F-FMK, FF-FMK and Z-FF-FMK), and the calculation formula was as followed: Relative inhibition rate %=(SEC−SS)/(SEC−SIC)*100. The IC50 for each compound was obtained by means of fitting by software GraphPad Prism 5.0.

A further assay addresses T2, Cathepsin K (Homo sapiens, UniProt P43235).
T2 construct: purchased Biovision K150-100
T2 sequence (P43235 115-329): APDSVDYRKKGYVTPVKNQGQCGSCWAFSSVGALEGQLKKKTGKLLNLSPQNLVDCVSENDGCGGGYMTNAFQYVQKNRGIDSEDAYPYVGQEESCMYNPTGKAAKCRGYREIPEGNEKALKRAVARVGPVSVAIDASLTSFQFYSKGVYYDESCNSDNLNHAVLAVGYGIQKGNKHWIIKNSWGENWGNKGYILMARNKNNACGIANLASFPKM
Description: IC50 determination against Cathepsin K (Biovision kit K150-100). In kind it is biochemical. As to conditions: CTSK. As to the method:
as §1
IC50 of compounds against Cathepsin K was determined by using Cathepsin K Inhibitor Screening Kit (Product No. K150-100) from Biovision Company;
2.1.1.1 Preparation of Cathepsin K solution: Cathepsin K enzyme (23 μl) and Cathepsin K reagent (46 μl) were added to Cathepsin K buffer (2231 μl), and mixed well, to prepare Cathepsin K enzyme solution with a volume of 2.3 ml, which was placed on ice for further use.
as §2
2.1.3.1 Cathepsin K: Cathepsin K substrate (90 μl) was added to Cathepsin K buffer (1710 μl), and mixed well, to prepare Cathepsin K substrate solution with a volume of 1.8 ml, which was placed on ice for further use.
as §3, §4

Setting [1] is: Exp-1, read-out: IC50 (nM) Exp-1.
[2] abbreviates: Exp-2, read-out: IC50 (nM) Exp-2.
Where [3] appears, read: average of Exp-1 and Exp-2, read-out: Ave of IC50.

T1 sequence (P25774 115-331): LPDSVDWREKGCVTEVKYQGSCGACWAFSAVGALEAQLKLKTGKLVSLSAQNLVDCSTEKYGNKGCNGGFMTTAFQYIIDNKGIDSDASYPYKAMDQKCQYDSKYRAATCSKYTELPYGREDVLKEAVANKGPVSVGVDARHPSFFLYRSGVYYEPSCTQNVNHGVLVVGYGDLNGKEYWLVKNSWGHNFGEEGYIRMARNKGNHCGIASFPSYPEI

For `CCCCCCNC(=O)[C@H](CCSC)NC(=O)[C@H]1O[C@@H]1C(=O)OCC` [Compound 5, (2s, 3s)-2-ethoxycarbonyl-3-[2-[(s)-4-methylthio-1-carbonyl-1-(hexylamino)butane]formylamino]epoxysuccinic acid], the IC50 at Cathepsin S (setting [1]) came to 4080 nM; on Cathepsin S (setting [2]) it was 4140 nM; at Cathepsin S (setting [3]), 4110 nM; at Cathepsin K (setting [1]), 1680 nM; on Cathepsin K (setting [2]), 1320 nM; on Cathepsin K (setting [3]), 1500 nM.
As to `CCOC(=O)[C@H]1O[C@@H]1C(=O)N[C@@H](CCSC)C(=O)NCCCc1ccccc1` [Compound 8, (2s, 3s)-2-ethoxycarbonyl-3-[2-[(s)-4-methylthio-1-carbonyl-1-(3-phenylpropylamino)butane]formylamino]epoxysuccinic acid], the IC50 at Cathepsin S (setting [1]) turned out to be 10600 nM; at Cathepsin S (setting [2]), 9450 nM; on Cathepsin S (setting [3]), 10000 nM; on Cathepsin K (setting [1]) it was 2950 nM; at Cathepsin K (setting [2]), 1500 nM; at Cathepsin K (setting [3]) it was 2220 nM.
Consider `CCOC(=O)[C@H]1O[C@@H]1C(=O)N[C@@H](CCSC)C(=O)N1CCC(c2ccccc2)CC1` [Compound 13, (2s, 3s)-2-ethoxycarbonyl-3-[2-[(s)-4-methylthio-1-carbonyl-1-(phenylpiperidinyl)butane]formylamino]epoxysuccinic acid], for which the concentration for half-maximal inhibition (IC50) amounted to 1900 nM at Cathepsin S (setting [1]); 957 nM at Cathepsin S (setting [2]); 1430 nM at Cathepsin S (setting [3]); 180 nM on Cathepsin K (setting [1]); 148 nM at Cathepsin K (setting [2]); 164 nM at Cathepsin K (setting [3]).
As for `CCOC(=O)[C@H]1O[C@@H]1C(=O)N[C@@H](CCSC)C(=O)NCCc1cccc(F)c1` [Compound 34, (2s, 3s)-2-ethoxycarbonyl-3-[2-[(s)-4-methylthio-1-carbonyl-1-(3-fluorophenylethylamino)butane]formylamino]epoxysuccinic acid], the half-maximal inhibitory concentration (IC50) at Cathepsin S (setting [1]) came to 1600 nM; on Cathepsin S (setting [2]) it was 1660 nM; on Cathepsin S (setting [3]), 1630 nM; on Cathepsin K (setting [1]), 586 nM; at Cathepsin K (setting [2]), 448 nM; on Cathepsin K (setting [3]) it was 517 nM.
Regarding `CCOC(=O)[C@H]1O[C@@H]1C(=O)N[C@@H](CCSC)C(=O)NC(CC)CC` [Compound 39, (2s, 3s)-2-ethoxycarbonyl-3-[2-[(s)-4-methylthio-1-carbonyl-1-(1-ethylpropylamino)butane]formylamino]epoxysuccinic acid], the IC50 on Cathepsin S (setting [1]) turned out to be 5110 nM; at Cathepsin S (setting [2]), 8750 nM; at Cathepsin S (setting [3]), 6930 nM; at Cathepsin K (setting [1]), 1680 nM; at Cathepsin K (setting [2]), 1610 nM; on Cathepsin K (setting [3]), 1650 nM.
`CCOC(=O)[C@H]1O[C@@H]1C(=O)N[C@@H](CCSC)C(=O)NCCCCc1ccccc1` [Compound 40, (2s, 3s)-2-ethoxycarbonyl-3-[2-[(s)-4-methylthio-1-carbonyl-1-(4-phenylbutylamino)butane]formylamino]epoxysuccinic acid]: the half-maximal inhibitory concentration (IC50) came out at 834 nM on Cathepsin S (setting [1]); 1510 nM at Cathepsin S (setting [2]); 1170 nM on Cathepsin S (setting [3]); 704 nM at Cathepsin K (setting [1]); 606 nM on Cathepsin K (setting [2]); 655 nM at Cathepsin K (setting [3]).
Consider `CCOC(=O)[C@H]1O[C@@H]1C(=O)N[C@@H](CC(C)C)C(=O)NCCC(C)C` [zxy-37, E64d, reference compound], for which the IC50 came out at 753 nM at Cathepsin S (setting [1]); 571 nM at Cathepsin S (setting [2]); 662 nM on Cathepsin S (setting [3]); 488 nM at Cathepsin K (setting [1]); 465 nM on Cathepsin K (setting [2]); 477 nM at Cathepsin K (setting [3]).

The values above are taken from patent US10647690B2, “2,3-epoxy succinyl derivative, preparation method and use thereof” (Institute of Pharmacology and Toxicology Academy of …, priority 2016, dated 2020).
